Data published in the NIST ThermoML archive (doi:10.1016/j.fluid.2013.09.022).
Numbers after ± are expanded uncertainties.

Assay: xn = mol fraction of the nth substance listed
Details: Gas, isochoric method

F/C=C/C(F)(F)F [trans-1,3,3,3-tetrafluoropropene] + O=C=O
Details	molar volume [m3/mol]
282.98 K, 1378 kPa, x2 = 0.859	0.00149 ± 1e-05
292.75 K, 1458.4 kPa, x2 = 0.859	0.001491 ± 1e-05
293.11 K, 1207.5 kPa, x2 = 0.733	0.001776 ± 1e-05
293.15 K, 1053.5 kPa, x2 = 0.642	0.002057 ± 1e-05
302.65 K, 741.2 kPa, x2 = 0.254	0.002778 ± 1e-05
302.78 K, 834.7 kPa, x2 = 0.331	0.002626 ± 1e-05
302.95 K, 1530.5 kPa, x2 = 0.859	0.001492 ± 1e-05
303.12 K, 1086.9 kPa, x2 = 0.563	0.002066 ± 1e-05
303.12 K, 1281.1 kPa, x2 = 0.733	0.001777 ± 1e-05
303.15 K, 934.1 kPa, x2 = 0.459	0.002372 ± 1e-05
303.19 K, 1105.4 kPa, x2 = 0.642	0.002058 ± 1e-05
313.09 K, 773.6 kPa, x2 = 0.155	0.002926 ± 1e-05
313.1 K, 879.9 kPa, x2 = 0.331	0.002627 ± 1e-05
313.1 K, 1598.3 kPa, x2 = 0.859	0.001492 ± 1e-05
313.11 K, 824.7 kPa, x2 = 0.254	0.00278 ± 1e-05
313.11 K, 979 kPa, x2 = 0.459	0.002373 ± 1e-05
313.14 K, 1137.1 kPa, x2 = 0.563	0.002067 ± 1e-05
313.15 K, 1337.5 kPa, x2 = 0.733	0.001778 ± 1e-05
313.18 K, 1155.7 kPa, x2 = 0.642	0.002059 ± 1e-05
323.03 K, 1183.9 kPa, x2 = 0.563	0.002067 ± 1e-05
323.04 K, 918.1 kPa, x2 = 0.331	0.002628 ± 1e-05
323.06 K, 861.2 kPa, x2 = 0.254	0.002781 ± 1e-05
323.06 K, 1392.7 kPa, x2 = 0.733	0.001778 ± 1e-05
323.07 K, 808.6 kPa, x2 = 0.155	0.002928 ± 1e-05
323.07 K, 1661.1 kPa, x2 = 0.859	0.001493 ± 1e-05
323.09 K, 1019.8 kPa, x2 = 0.459	0.002374 ± 1e-05
323.12 K, 1201.6 kPa, x2 = 0.642	0.00206 ± 1e-05
332.99 K, 1059.7 kPa, x2 = 0.459	0.002375 ± 1e-05
333.02 K, 897.5 kPa, x2 = 0.254	0.002782 ± 1e-05
333.03 K, 1246.4 kPa, x2 = 0.642	0.002061 ± 1e-05
333.04 K, 1723.3 kPa, x2 = 0.859	0.001494 ± 1e-05
333.05 K, 843.8 kPa, x2 = 0.155	0.002929 ± 1e-05
333.07 K, 955.4 kPa, x2 = 0.331	0.002629 ± 1e-05
333.08 K, 1445.3 kPa, x2 = 0.733	0.001779 ± 1e-05
333.15 K, 1230.3 kPa, x2 = 0.563	0.002068 ± 1e-05
342.9 K, 1274.8 kPa, x2 = 0.563	0.002069 ± 1e-05
342.93 K, 1098.9 kPa, x2 = 0.459	0.002376 ± 1e-05
343.01 K, 1497.2 kPa, x2 = 0.733	0.00178 ± 1e-05
343.02 K, 991.5 kPa, x2 = 0.331	0.00263 ± 1e-05
343.05 K, 877.3 kPa, x2 = 0.155	0.00293 ± 1e-05
343.06 K, 1785.7 kPa, x2 = 0.859	0.001494 ± 1e-05
343.07 K, 1291.7 kPa, x2 = 0.642	0.002062 ± 1e-05
343.2 K, 933 kPa, x2 = 0.254	0.002783 ± 1e-05
352.96 K, 1140 kPa, x2 = 0.459	0.002377 ± 1e-05
353.01 K, 1320.4 kPa, x2 = 0.563	0.00207 ± 1e-05
353.02 K, 910 kPa, x2 = 0.155	0.002931 ± 1e-05
353.03 K, 1336.3 kPa, x2 = 0.642	0.002062 ± 1e-05
353.03 K, 1847.2 kPa, x2 = 0.859	0.001495 ± 1e-05
353.1 K, 1027.7 kPa, x2 = 0.331	0.002631 ± 1e-05
353.12 K, 967.3 kPa, x2 = 0.254	0.002784 ± 1e-05
353.14 K, 1549.7 kPa, x2 = 0.733	0.001781 ± 1e-05
362.89 K, 1178.4 kPa, x2 = 0.459	0.002378 ± 1e-05
362.94 K, 1380.5 kPa, x2 = 0.642	0.002063 ± 1e-05
363.03 K, 1000.8 kPa, x2 = 0.254	0.002786 ± 1e-05
363.05 K, 1365.6 kPa, x2 = 0.563	0.002071 ± 1e-05
363.08 K, 942.8 kPa, x2 = 0.155	0.002933 ± 1e-05
363.08 K, 1908.8 kPa, x2 = 0.859	0.001496 ± 1e-05
363.12 K, 1601.3 kPa, x2 = 0.733	0.001781 ± 1e-05
363.14 K, 1063.4 kPa, x2 = 0.331	0.002632 ± 1e-05
